Source: patent US11992697B2, “X-ray psoralen activated cancer therapy (X-PACT)” (IMMUNOLIGHT, LLC, priority 2015, dated 2024)

Columns and labels:
[1] = tested on: 4T1-HER2 cells; test: In-vitro X-PACT Annexin V (+) signal by Guava flow cytometry (FIGS. 2B, 4, 5); assay type: cell-based, murine; details: component alone; 36 independent irradiation experiments, 1 Gy at 80 kVp
Procedure: Guava Annexin V flow cell cytometry was used to quantify cytotoxicity in 3 murine tumor cell lines (breast-4T1, glioma-CT2A, and sarcoma KP15B8). In-vitro X-PACT studies were conducted on cells prepared in the following manner. Cells were incubated in appropriate growing media and buffers before being trypsinized and plated evenly onto twelve (12) well plates for 24 hours. About 20 minutes prior to X-PACT irradiation, the wells of each plate were exposed to the following combinations of additives: (1) control—cells only with no additives, (2) UVADEX only, (3) phosphors only, (4) UVADEX+phosphors. Each plate had twelve (12) wells with three wells for each of the four treatment arms. […]
Two primary flow cytometry metrics were used to evaluate the X-PACT treatments, both determined at 48h after X-PACT treatment. […] The first metric is metabolically viable cell count (or cell viability) determined from the number of whole cells per well as determined using forward scattering (FSC). […] (All wells on a given plate receive the same dose.) The second metric is Annexin V (+) signal, which is the fraction of the metabolically viable cells which expressed a positive Annexin V signal as determined by flow cell cytometry, and include any cells advancing toward early or late apoptotic cell death. […]

[2] = tested on: CT2A (murine malignant glioma); test: UV light activated psoralen, Cell-Titer-Glo Luminescence Cell Viability Assay (FIG. 3A); assay type: cell-based; details: psoralen 40 μM; UV light 0, 0.25, 0.5, 1.0 J/cm^2
Procedure: (§1) Metabolic cell viability was also assessed visually using Methylene blue staining and ATP-induced Luminescence imaging (Cell-Titer-Glo® Luminescence Cell Viability Assay). The luminescence imaging permitted investigation of the cytotoxicity of psoralen activated directly with a UV lamp, and in the absence of phosphors and x-ray radiation.
(§2) N=4 for each cell line at each UV light condition (0, 0.25, 0.5, 1.0 J/cm^2). The psoralen concentration was 40 μM.

[3] = tested on: 4T1; test: as above; assay type: cell-based, murine; details: psoralen 40 μM; UV light 0, 0.25, 0.5, 1.0 J/cm^2
Procedure: as §1, §2

[4] = tested on: KP158B (sarcoma); test: as above; assay type: cell-based, murine; details: psoralen 40 μM; UV light 0, 0.25, 0.5, 1.0 J/cm^2
Procedure: as §1, §2

[5] = tested on: syngeneic 4T1-HER2 tumors; test: In-vivo X-PACT trial, tumor growth (FIG. 6); parameters: species or system BALB/c mice; details: 5 μM psoralen (AMT) or 100 μg phosphor with x-ray; compared with expectation from in-vitro data
Procedure: An in-vivo trial was conducted for preliminary evaluation of X-PACT administered to syngeneic 4T1-HER2 tumors grown on BALB/c mice. There were 4 arms of the trial: (1) saline only (control), (2) phosphors alone with x-ray, (3) psoralen (AMT) alone with x-ray, and (4) full X-PACT treatment including both phosphor and psoralen and x-ray irradiation. X-PACT treatments were given in 3 fractions per week, to a total of 6 fractions. In arms 2-3 a consistent x-ray irradiation technique was used (about 1.2 Gy delivered at 75 kVp by 30 mA in 3 minutes) with 100 μg of phosphor, and 5 μM psoralen (AMT) (with μM representing micromolar). 0.5 Million tumor cells were injected per mouse. There were 6-8 mice per arm, and the study was repeated a second time, yielding effective sample sizes of 12-16.
In this evaluation, X-PACT treatment was applied to BALBC mice with syngeneic 4T1-HER2 tumors. In the separate psoralen and phosphor control arms (blue and red respectively), 5 μM psoralen (AMT) and 100 μg of phosphor where applied. A consistent x-ray irradiation technique was used for all arms (except saline control) which was 2 Gy delivered at 75 kVp by 30 mA in 3 minutes.

O=c1ccc2cc3ccoc3cc2o1 [psoralen]
effect on cytotoxicity (Annexin V signal), multi-variable regression [1]: neither psoralen nor phosphor alone had a strong effect | effect of UV light activated psoralen on viable cells [2]: reduce viable cells | effect of UV light activated psoralen on viable cells [3]: reduce viable cells | effect of UV light activated psoralen on viable cells [4]: reduce viable cells | component effect on tumor growth (single-component arm with x-ray) [5]: slightly higher component effect
